Measured values from patent publication US20230270871A1, “MARKERS FOR USE IN METHODS FOR TREATING CANCERS WITH ANTIBODY DRUG CONJUGATES (ADC)” (AGENSYS, INC., priority 2020, published 2023).
Where a SMILES comes first, the peptide text is derived from it. [ ]: non-standard residue; d: D form. The star is where a group is joined. Dolaproine = CO[C@@H]([C@@H]1CCCN1)[C@@H](C)C(=O)O; Dil = CC[C@H](C)[C@H](NC)[C@@H](CC(=O)O)OC; X1 = C[C@@H](N*)[C@@H](O)c1ccccc1; NMeV = CN[C@H](C(=O)O)C(C)C

Assays:
[1] = system: acute myeloid leukemia (AML) at relapse; conditions: administered alone; cited from earlier work
[2] = system: phospho-JNK; test: Phospho-JNK western blot; assay type: cell-based; conditions: FIG. 9C
Method: T-24 Nectin-4 (clone1A9) cells were treated with an anti-nectin-4 ADC (AGS-22C3E) for 48 hours and stained with β-tubulin for microtubules and DAPI, a nuclear DNA stain. FIGS. 9B and 9C depict activation of phospho-INK in response to the treatment with an anti-nectin-4 ADC (AGS-22C3E). In FIG. 9B, western blots show an increase in phospho-JNK over a period of 48 hours upon treatment with an anti-nectin-4 ADC (AGS-22C3E) at 1 ug/mL). In FIG. 9C, Phosphorylation of JNK is observed in treatment with an anti-nectin-4 ADC (AGS-22C3E) and MMAE but absent in untreated or non-binding ADC control.

[3] = system: phospho-JNK; test: ER stress, phospho-JNK activation; assay type: cell-based
[4] = system: T-24-Nectin-4 cells; test: ICD cell surface markers (calreticulin, HSP70); assay type: cell-based, human; conditions: anti-nectin-4 ADC 1 ug/mL, MMAE 100 nM, compared with untreated or control hIgG-MMAE (1 mg/mL)
Description: FIG. 4A is a cartoon representation of the release of ATP and HMGB1 by cells treated with an anti-nectin-4 ADC and the effects of the released ATP and HMGB1 on macrophages. FIG. 4B is a cartoon representation of the release of ATP and HMGB1 by cells treated with an anti-nectin-4 ADC, the activation of the immune cells by the ATP and HMGB1, and the potential immunogenic cell death or immunogenic cell killing by the activated immune cells. FIG. 4C depicts ATP release in control T-24 cells and T-24 cells expressing nectin-4 after various treatments as indicated. FIG. 4D depicts ATP release in control UM-UC-3 cells and UM-UC-3 cells expressing nectin-4 after various treatments as indicated. FIG. 4E depicts HMGB1 release in control T-24 cells and T-24 cells expressing nectin-4 after various treatments as indicated. FIGS. 4F and 4G depict cell surface calreticulin (4F) and HSP70 (4G), respectively, in cells upon various treatments as indicated. Increase in ICD cell surface markers such as calreticulin or HSP70 can be detected on T-24-Nectin-4 cells upon treatment with an anti-nectin-4 ADC (1 ug/mL) or MMAE (100 nM) compared with untreated or treatment with the control hIgG-MMAE (1 mg/mL). In FIGS. 4C to 4G, EV and AGS-22C3E indicate the same anti-nectin-4 ADC.

[5] = target: T1, human Nectin-4 (human, UniProt Q96NY8 32-510); test: cell-based or functional assay
T1 sequence: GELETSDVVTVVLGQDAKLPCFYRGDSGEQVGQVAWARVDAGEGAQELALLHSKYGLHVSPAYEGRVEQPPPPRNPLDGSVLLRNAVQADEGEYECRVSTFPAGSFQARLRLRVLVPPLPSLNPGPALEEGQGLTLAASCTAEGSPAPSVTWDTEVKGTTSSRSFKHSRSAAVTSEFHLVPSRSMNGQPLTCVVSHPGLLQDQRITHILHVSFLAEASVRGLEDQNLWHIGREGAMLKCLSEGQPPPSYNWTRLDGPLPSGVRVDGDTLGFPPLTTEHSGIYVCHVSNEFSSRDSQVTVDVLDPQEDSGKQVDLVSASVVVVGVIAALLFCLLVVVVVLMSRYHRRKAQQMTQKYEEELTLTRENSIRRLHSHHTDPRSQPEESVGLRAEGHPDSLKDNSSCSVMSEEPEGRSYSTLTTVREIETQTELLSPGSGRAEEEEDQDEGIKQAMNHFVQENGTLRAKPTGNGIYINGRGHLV

Question: With “CT-011: anti-PD-1 antibody, a humanized antibody” as the molecule, how does the “response in AML at relapse” value [1] read?
Answer: Its value is “failed to show response”.

Question: What does the source list for `CC[C@H](C)[C@@H]([C@@H](CC(=O)N1CCC[C@H]1[C@H](OC)[C@@H](C)C(=O)N[C@H](C)[C@@H](O)c1ccccc1)OC)N(C)C(=O)[C@@H](NC(=O)[C@@H](NC)C(C)C)C(C)C` [MMAE, monomethyl auristatin E] (H-[NMeV]V[Dil][Dolaproine]-X1)?
Answer: phosphorylation of JNK [2]: observed; phospho-JNK activation [3]: activates phospho-JNK; cell surface calreticulin (ICD marker) ([4]; FIG. 4F): Increase; cell surface HSP70 (ICD marker) ([4]; FIG. 4G): Increase

B1: enfortumab vedotin (antibody, human IgG1, kappa, V domains shown)
VH: EVQLVESGGGLVQPGGSLRLSCAASGFTFSSYNMNWVRQAPGKGLEWVSYISSSSSTIYYADSVKGRFTISRDNAKNSLSLQMNSLRDEDTAVYYCARAYYYGMDVWGQGTTVTVSS
VL: DIQMTQSPSSVSASVGDRVTITCRASQGISGWLAWYQQKPGKAPKFLIYAASTLQSGVPSRFSGSGSGTDFTLTISSLQPEDFATYYCQQANSFPPTFGGGTKVEIKR
modifications: MMAE conjugated via a protease-cleavable maleimidocaproyl valine-citrulline (vc) linker on cysteine residues that comprise the interchain disulfide bonds; drug-to-antibody ratio approximately 3.8:1
Question: For B1, which “Enfortumab vedotin Cytotoxicity IC50 (T-24 Nectin-4 Clone 1A9 cells; cell viability by CELL TITER-GLO 120 hours post-treatment)” value [5] is on record?
Answer: Its value is 0.085 µg/mL.

Question: What about the “Enfortumab vedotin Cytotoxicity IC50 (UM-UC-3 Nectin-4 Clone 1D11 cells; cell viability by CELL TITER-GLO 120 hours post-treatment)” value [5] of the same molecule?
Answer: The value was 0.006 µg/mL.
